Laboratory results taken from ChEMBL document CHEMBL4373629, “Dual inhibitors of LSD1 and spermine oxidase” (Medchemcomm, 2019).
Activity calls are given as the source filed them. No cut-off for these calls is given here.

Assays:
[1] = target: T1, Amine oxidase [flavin-containing] A (Homo sapiens, UniProt P21397); assay: Inhibition of MAOA (unknown origin) using luminogenic substrate incubated for 1 hr by luminescence based assay
T1 sequence (P21397 whole entry): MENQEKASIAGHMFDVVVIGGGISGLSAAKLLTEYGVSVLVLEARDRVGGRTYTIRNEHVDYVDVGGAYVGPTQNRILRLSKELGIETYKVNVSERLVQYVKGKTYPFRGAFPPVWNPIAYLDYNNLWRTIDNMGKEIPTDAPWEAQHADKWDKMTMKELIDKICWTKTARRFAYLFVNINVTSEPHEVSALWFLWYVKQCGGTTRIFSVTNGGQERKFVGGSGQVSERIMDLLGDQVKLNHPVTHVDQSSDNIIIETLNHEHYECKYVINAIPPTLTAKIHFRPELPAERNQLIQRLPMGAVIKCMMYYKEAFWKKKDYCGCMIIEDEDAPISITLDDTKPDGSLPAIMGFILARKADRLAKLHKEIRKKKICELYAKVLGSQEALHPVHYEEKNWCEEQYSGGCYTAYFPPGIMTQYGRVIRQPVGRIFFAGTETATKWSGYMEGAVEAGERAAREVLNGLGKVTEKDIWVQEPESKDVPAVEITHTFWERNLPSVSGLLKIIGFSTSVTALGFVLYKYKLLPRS

[2] = target: Peroxisomal N(1)-acetyl-spermine/spermidine oxidase (Homo sapiens, UniProt Q6QHF9); assay: Inhibition of PAOX (unknown origin) assessed as decrease in spermidine formation using N-acetylspermine as substrate treated with compound 2 mins prior to substrate addition followed by further incubation for 1 hr by HPLC analysis
Spermine oxidase [3] = target: T2, Spermine oxidase (Homo sapiens, UniProt Q9NWM0); assay: Inhibition of SMOX (unknown origin) assessed as decrease in spermidine formation using spermine as substrate at 10 uM treated with compound 2 mins prior to substrate addition followed by further incubation for 1 hr by HPLC analysis relative to control
[4] = target: T3, MAOB (amine oxidase [flavin-containing] B) (Homo sapiens, UniProt P27338); assay: Inhibition of MAOB (unknown origin) using luminogenic substrate at 10 uM incubated for 1 hr by luminescence based assay relative to control; settings: MAOB enzyme (unknown origin), probe luminogenic substrate
T3 sequence (P27338 whole entry): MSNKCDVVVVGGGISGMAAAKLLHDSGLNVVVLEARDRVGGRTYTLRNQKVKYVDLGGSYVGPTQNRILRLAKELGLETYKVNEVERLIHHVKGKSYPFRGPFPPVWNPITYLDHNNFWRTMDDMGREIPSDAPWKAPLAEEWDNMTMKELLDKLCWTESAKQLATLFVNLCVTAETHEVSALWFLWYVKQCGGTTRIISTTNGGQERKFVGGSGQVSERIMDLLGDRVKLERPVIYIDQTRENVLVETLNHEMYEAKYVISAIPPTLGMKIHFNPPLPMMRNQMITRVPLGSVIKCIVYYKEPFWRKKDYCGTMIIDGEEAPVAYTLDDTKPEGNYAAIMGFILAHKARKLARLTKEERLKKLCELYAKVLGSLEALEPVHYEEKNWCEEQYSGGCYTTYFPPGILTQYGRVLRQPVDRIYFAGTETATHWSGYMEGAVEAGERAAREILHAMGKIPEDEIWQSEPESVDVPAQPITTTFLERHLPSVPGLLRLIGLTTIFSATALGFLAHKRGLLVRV

Spermine oxidase [5] = target: T2, Spermine oxidase; assay: Inhibition of SMOX (unknown origin) assessed as decrease in spermidine formation using spermine as substrate treated with compound 2 mins prior to substrate addition followed by further incubation for 1 hr by HPLC analysis
[6] = target: T4, Amine oxidase [flavin-containing] B (Homo sapiens, UniProt P27338); assay: Inhibition of MAOB (unknown origin) using luminogenic substrate incubated for 1 hr by luminescence based assay
T4 sequence (P27338 whole entry): T3 sequence (P27338 whole entry)

BXPC-3 [7] = assay: cells; settings: Homo sapiens, BXPC-3, 72 h
Description: Antiproliferative activity against human BxPC3 cells assessed as reduction in cell growth incubated for 72 hrs by MTS assay

LSD1/CoREST complex = LSD1/CoREST complex (Homo sapiens, UniProt O60341); assay: Inhibition of recombinant LSD1/CoREST (unknown origin) incubated for 30 mins to 4 hrs by fluorescence based assay; type: protein-complex assay
cells = settings: Homo sapiens, MIA PaCa-2, 72 h
Description: Antiproliferative activity against human MiaPaCa cells assessed as reduction in cell growth incubated for 72 hrs by MTS assay

[8] = target: T5, MAOA (amine oxidase [flavin-containing] A) (Homo sapiens, UniProt P21397); assay: Inhibition of MAOA (unknown origin) using luminogenic substrate at 10 uM incubated for 1 hr by luminescence based assay relative to control; settings: MAOA enzyme (unknown origin), probe luminogenic substrate
T5 sequence (P21397 whole entry): T1 sequence (P21397 whole entry)

RAW264.7 = assay: Inhibition of reactive oxygen species formation in mouse RAW264.7 cells infected with Helicobacter pylori; type: functional, cell-based
BXPC-3 [9] = assay: Antiproliferative activity against human BxPC3 cells assessed as reduction in cell growth at 10 to 100 uM incubated for 72 hrs by MTS assay relative to control; type: functional
Spermine oxidase [10] = target: T2, Spermine oxidase; assay: Potency index, ratio of MDL72527 IC50 to compound IC50 for SMOX (unknown origin) using spermine as substrate treated with compound 2 mins prior to substrate addition followed by further incubation for 1 hr by HPLC analysis

T2 sequence (Q9NWM0 whole entry): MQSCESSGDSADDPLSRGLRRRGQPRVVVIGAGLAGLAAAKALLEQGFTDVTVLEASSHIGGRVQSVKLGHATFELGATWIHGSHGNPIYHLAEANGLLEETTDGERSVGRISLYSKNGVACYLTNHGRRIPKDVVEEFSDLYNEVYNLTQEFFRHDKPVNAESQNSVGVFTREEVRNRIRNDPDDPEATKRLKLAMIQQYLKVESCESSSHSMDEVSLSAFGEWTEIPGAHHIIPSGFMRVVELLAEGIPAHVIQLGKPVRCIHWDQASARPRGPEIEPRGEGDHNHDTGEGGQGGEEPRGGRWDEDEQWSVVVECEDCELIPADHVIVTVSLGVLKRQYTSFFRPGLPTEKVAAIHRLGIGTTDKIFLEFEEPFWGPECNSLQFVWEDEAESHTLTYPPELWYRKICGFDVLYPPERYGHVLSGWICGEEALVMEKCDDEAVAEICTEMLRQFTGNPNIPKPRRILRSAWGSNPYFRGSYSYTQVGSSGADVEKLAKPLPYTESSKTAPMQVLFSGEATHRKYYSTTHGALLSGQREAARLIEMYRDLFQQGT
Chain of Peroxisomal N(1)-acetyl-spermine/spermidine oxidase (Q6QHF9 whole entry): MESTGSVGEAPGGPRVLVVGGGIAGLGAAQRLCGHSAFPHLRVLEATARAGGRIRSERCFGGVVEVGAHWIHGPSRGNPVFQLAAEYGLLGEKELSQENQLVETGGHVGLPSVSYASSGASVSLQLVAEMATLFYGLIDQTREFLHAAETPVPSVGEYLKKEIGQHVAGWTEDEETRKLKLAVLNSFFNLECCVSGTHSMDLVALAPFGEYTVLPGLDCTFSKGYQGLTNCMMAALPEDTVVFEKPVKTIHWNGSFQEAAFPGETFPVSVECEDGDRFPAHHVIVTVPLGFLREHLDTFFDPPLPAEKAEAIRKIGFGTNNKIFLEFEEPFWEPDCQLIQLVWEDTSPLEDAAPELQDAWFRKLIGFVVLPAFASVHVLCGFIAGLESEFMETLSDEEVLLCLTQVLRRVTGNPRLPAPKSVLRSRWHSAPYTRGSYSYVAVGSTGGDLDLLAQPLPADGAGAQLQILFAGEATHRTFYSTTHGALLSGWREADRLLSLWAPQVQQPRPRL

Row | Compound | IC50 [1] | IC50 [2] | inhibition (Spermine oxidase [3]) | inhibition at 1 h, 10 µM [4] | IC50 (Spermine oxidase [5]) | IC50 [6] | IC50 (BXPC-3 [7]) | IC50 (LSD1/CoREST complex) | IC50 (cells) | inhibition at 1 h, 10 µM [8] | inhibition (RAW264.7) | inhibition (INH) (BXPC-3 [9]) | Ratio IC50 (Spermine oxidase [10])
1 | CC(C)(C)c1ccc(Oc2ccccc2CNc2nc(N)n[nH]2)cc1 | 61.5 µM | > 200 µM | 0% | 32.3% | > 200 µM |  |  |  |  |  |  |  | 
2 | Nc1n[nH]c(NCc2c(Cl)cccc2Oc2cccc3ccccc23)n1 | > 200 µM |  | 19% | 7.12% | 148 µM | > 200 µM | > 100 µM | 0.19 to 0.23 µM | 30 to 200 µM | 0% |  |  | 
3 | N[C@@H]1C[C@H]1c1ccccc1.N[C@H]1C[C@@H]1c1ccccc1 |  |  | 0% |  |  |  |  |  |  |  |  |  | 
4 | Nc1n[nH]c(NCc2ccccc2Oc2ccc(F)cc2)n1 | 89.3 µM | > 200 µM | 0% | 40.7% | > 200 µM |  |  |  |  |  |  |  | 
5 | CSc1ccc(Oc2ccccc2CNc2nc(N)n[nH]2)cc1 | 38.4 µM | > 200 µM | 0% | 31.7% | > 200 µM |  |  |  |  |  |  |  | 
6 | Cc1cccc(Oc2ccccc2CNc2nc(N)n[nH]2)c1C | > 200 µM | > 200 µM | 0% | 68.6% | > 200 µM |  |  |  |  | 0% |  |  | 
7 | Nc1nnc(NCc2c(Cl)cccc2Oc2ccccc2)[nH]1 | > 200 µM |  | 28% | 0% | 178 µM | > 200 µM |  |  | 2.66 µM | 0% | Active |  | 
8 | Nc1ccn([C@@H]2O[C@H](CO)[C@@H](O)C2(F)F)c(=O)n1 [GEMCITABINE] |  |  |  |  |  |  | 5.71 µM |  | 1.86 µM |  |  | 30% | 
9 | COc1cc(OC)cc(Oc2ccccc2CNc2nc(N)n[nH]2)c1 | > 200 µM | > 200 µM | 0% | 17.1% | > 200 µM |  |  |  |  | 0% |  |  | 
10 | Cc1cc(C)cc(Oc2ccccc2CNc2nc(N)n[nH]2)c1 | 91.4 µM | > 200 µM | 0% | 83.4% | > 200 µM |  |  |  |  |  |  |  | 
11 | Nc1n[nH]c(NCc2c(Cl)cccc2Oc2ccc3ccccc3c2)n1 | > 200 µM |  | 23.6% | 0% | 163 µM | > 200 µM |  |  |  | 0% |  |  | 
12 | Nc1n[nH]c(NCc2ccccc2Oc2ccccc2)n1 | 50.2 µM | > 200 µM | 0% | 18.8% | > 200 µM |  |  |  |  |  |  |  | 
13 | Nc1n[nH]c(NCc2ccccc2Oc2ccc3ccccc3c2)n1 | 79.2 µM | > 200 µM | 0% | 81.6% | > 200 µM |  |  |  |  |  |  |  | 
14 | Cc1ccc(C(C)C)c(Oc2ccccc2CNc2nc(N)n[nH]2)c1 | 55.5 µM | > 200 µM | 13.9% | 49.7% | > 200 µM |  |  |  |  |  |  |  | 
15 | Nc1n[nH]c(NCc2ccccc2Oc2ccc(-c3ccccc3)cc2)n1 | 50 µM | > 200 µM | 25.7% | 26.4% | 25.7 µM |  | 61.5 µM |  | 30 to 200 µM |  |  |  | 3.5
16 | Nc1n[nH]c(NCc2ccccc2Oc2ccc(Br)cc2C(F)(F)F)n1 | 3 µM | > 200 µM | 0% | 90.1% | 121 µM |  | > 100 µM |  | 30 to 200 µM |  |  |  | 
17 | C=C=CCNCCCCNCC=C=C | > 200 µM |  | 4.8% | 0% | 89.7 µM | > 200 µM |  | > 100 µM |  | 0% |  |  | 
